Assay results reported in patent US11241387B2, “Carrier-binding agent compositions and methods of making and using the same” (Mayo Foundation for Medical Education and Research, priority 2015, dated 2022).

Key:
[1] = test system: A375 human melanoma cells; test: A375 human melanoma xenograft in athymic nude mice; assay type: in vivo
Description: In vivo experiments were performed at least 2 times. The number of mice required for those experiments was determined by power analysis. Mouse tumors were measured 2-3 times/week and mice were sacrificed when the tumor was 10% by weight. […] The end point of the mouse studies was median survival. Kaplan-Meier curves were generated and Mantle-Cox test was performed to determine significance of median survival between treatment groups. The in vitro results presented are representative of at least 5 repeated experiments. Statistical analyses of in vitro and in vivo percent change from baseline experiments were done using the Student's t-test.
(§1) To test tumor efficacy, 1×10^6 A375 human melanoma cells were implanted into the right flank of athymic nude mice (Harlan Sprague Dawley, Indianapolis, Ind.). […] Tumor size was monitored 3 times/week and tumor volume was calculated with the following equation: (length×width)/2. Mice were sacrificed when the tumor size equaled 10% of the mouse body weight or about 2500 mm^3. The day 7 percent change from baseline was calculated as follows: [(tumor size on treatment day-tumor size on day 7)/tumor size on treatment day]×100.

ABX = molecular target: T1, ABX (Homo sapiens, UniProt P02768); test: Bio-Layer Interferometry (BLItz) binding of antibody to ABX; details: pH 3, 5, 7, 9; BEV also RT, 37° C. and 58° C.
T1 construct: purchased Celgene Corporation, Summit, N.J
Description: The association and dissociation constants were calculated using the BLItz software.

[2] = test system: Daudi human lymphoma cells; test: Daudi xenotransplant model in athymic nude mice; assay type: in vivo; details: ABX 30 mg/kg, rituximab 12 mg/kg, or AR160
Description: as §1

CD20 = molecular target: T2, CD20 (Homo sapiens, UniProt P11836); test: Blocking of fluorescent anti-CD20 labeling of Daudi cells (flow cytometry); assay type: binding; details: Daudi cells pretreated prior to CD20 labeling
T2 construct: host or cells: Daudi B-cell lymphoma cells
T2 sequence (P11836 1-297): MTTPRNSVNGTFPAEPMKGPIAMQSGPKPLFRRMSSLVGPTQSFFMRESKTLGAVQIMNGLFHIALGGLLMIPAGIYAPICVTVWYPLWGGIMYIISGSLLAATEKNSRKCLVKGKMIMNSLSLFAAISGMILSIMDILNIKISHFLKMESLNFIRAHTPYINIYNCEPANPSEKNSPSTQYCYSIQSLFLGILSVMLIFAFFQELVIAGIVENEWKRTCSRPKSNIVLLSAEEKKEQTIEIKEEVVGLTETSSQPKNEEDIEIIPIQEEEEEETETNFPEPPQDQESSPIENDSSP
Description: FIG. 12 depicts the results of an experiment in which CD20 positive Daudi lymphoma cells were labeled with fluorescent tagged anti-human CD20 or isotype matched control in panels F and A, respectively, and analyzed by flow cytometry.
CD20 positive Daudi lymphoma cells were labeled with fluorescent tagged anti-human CD20 or isotype matched control in panel F and A, respectively, and analyzed by flow cytometry.

| Substance | therapeutic effect on tumor volume ([1]; 12 mg/kg dose) | median survival ([1]; BEV 12 mg/kg, ABX 30 mg/kg, BEV followed by ABX, or AB160) [days] | pH and temperature dependence of binding affinity to ABX (ABX) | median survival [2] [days] | blocking of CD20 binding of fluorescent anti-CD20 (CD20) |
| --- | --- | --- | --- | --- | --- |
| bevacizumab | not therapeutic | 14 | highest binding affinity observed when the particles are formed at pH 5 and 58 °C | – | – |
| rituximab | – | – | decreased with higher pH | 12 | specifically blocked |
